Test results from the supplement of paper PMC10307832.

Columns and labels:
Assay in all cases: relative viability (nuclei count vs DMSO), 5 days (fraction); higher = more cells survive
COR-L23 = tested on: COR-L23
Method in brief: (§1)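 A single step with final 0.05% Triton X-100, 1% formaldehyde and 1 ug/ml Hoechst fixed the cells and stained nuclei 5 days after treatment. Lung cancer cell lines in 1536-well plates had been treated by pin tool the day after seeding with one drug alone or a fixed anchor-drug dose plus five library-drug doses (not always all listed) in √10 steps, and nuclei were counted on 4× images. Relative viability is the ratio of nuclei in treated wells to nuclei in vehicle wells, taken as the median of duplicate plates.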

ChaGo-K-1 = tested on: ChaGo-K-1
Method in brief: as §1

EMC-BAC-2 = tested on: EMC-BAC-2
Method in brief: as §1

HARA = tested on: HARA
Method in brief: as §1

HCC-15 = tested on: HCC-15
Method in brief: as §1

HCC-366 = tested on: HCC-366
Method in brief: as §1

HCC-78 = tested on: HCC-78
Method in brief: as §1

HOP-62 = tested on: HOP-62
Method in brief: as §1

LC-2-ad = tested on: LC-2-ad
Method in brief: as §1

NCI-H1395 = tested on: NCI-H1395
Method in brief: as §1

NCI-H1793 = tested on: NCI-H1793
Method in brief: as §1

NCI-H1944 = tested on: NCI-H1944
Method in brief: as §1

NCI-H1993 = tested on: NCI-H1993
Method in brief: as §1

NCI-H2023 = tested on: NCI-H2023
Method in brief: as §1

NCI-H2126 = tested on: NCI-H2126
Method in brief: as §1

NCI-H2228 = tested on: NCI-H2228
Method in brief: as §1

NCI-H23 = tested on: NCI-H23
Method in brief: as §1

NCI-H2405 = tested on: NCI-H2405
Method in brief: as §1

NCI-H358 = tested on: NCI-H358
Method in brief: as §1

NCI-H838 = tested on: NCI-H838
Method in brief: as §1

SK-LU-1 = tested on: SK-LU-1
Method in brief: as §1

## O=c1cc(-c2cccc3c2Sc2ccccc2S3)oc(N2CCOCC2)c1 + Nc1nc2[nH]cc(CCc3ccc(C(=O)N[C@@H](CCC(=O)O)C(=O)O)cc3)c2c(=O)[nH]1 [Pemetrexed] (partner 0.2 µM)
COR-L23; first compound 0.08 µM
  relative viability: 0.194
COR-L23; first compound 0.253 µM
  relative viability: 0.215
COR-L23; first compound 0.8 µM
  relative viability: 0.215
COR-L23; first compound 2.53 µM
  relative viability: 0.195
COR-L23; first compound 8 µM
  relative viability: 0.197
ChaGo-K-1; first compound 0.08 µM
  relative viability: 0.251
ChaGo-K-1; first compound 0.253 µM
  relative viability: 0.264
ChaGo-K-1; first compound 0.8 µM
  relative viability: 0.248
ChaGo-K-1; first compound 2.53 µM
  relative viability: 0.287
ChaGo-K-1; first compound 8 µM
  relative viability: 0.273
EMC-BAC-2; first compound 0.08 µM
  relative viability: 0.396
EMC-BAC-2; first compound 0.253 µM
  relative viability: 0.473
EMC-BAC-2; first compound 0.8 µM
  relative viability: 0.442
EMC-BAC-2; first compound 2.53 µM
  relative viability: 0.429
EMC-BAC-2; first compound 8 µM
  relative viability: 0.463
HARA; first compound 0.08 µM
  relative viability: 0.24
HARA; first compound 0.253 µM
  relative viability: 0.227
HARA; first compound 0.8 µM
  relative viability: 0.228
HARA; first compound 2.53 µM
  relative viability: 0.251
HARA; first compound 8 µM
  relative viability: 0.286
HCC-15; first compound 0.08 µM
  relative viability: 0.23
HCC-15; first compound 0.253 µM
  relative viability: 0.253
HCC-15; first compound 0.8 µM
  relative viability: 0.207
HCC-15; first compound 2.53 µM
  relative viability: 0.204
HCC-15; first compound 8 µM
  relative viability: 0.228
HCC-366; first compound 0.08 µM
  relative viability: 0.154
HCC-366; first compound 0.253 µM
  relative viability: 0.193
HCC-366; first compound 0.8 µM
  relative viability: 0.167
HCC-366; first compound 2.53 µM
  relative viability: 0.154
HCC-366; first compound 8 µM
  relative viability: 0.155
HCC-78; first compound 0.08 µM
  relative viability: 0.914
HCC-78; first compound 0.253 µM
  relative viability: 0.943
HCC-78; first compound 0.8 µM
  relative viability: 0.946
HCC-78; first compound 2.53 µM
  relative viability: 0.882
HCC-78; first compound 8 µM
  relative viability: 0.928
HOP-62; first compound 0.08 µM
  relative viability: 0.322
HOP-62; first compound 0.253 µM
  relative viability: 0.305
HOP-62; first compound 0.8 µM
  relative viability: 0.406
HOP-62; first compound 2.53 µM
  relative viability: 0.396
HOP-62; first compound 8 µM
  relative viability: 0.352
LC-2-ad; first compound 0.08 µM
  relative viability: 0.284
LC-2-ad; first compound 0.253 µM
  relative viability: 0.252
LC-2-ad; first compound 0.8 µM
  relative viability: 0.285
LC-2-ad; first compound 2.53 µM
  relative viability: 0.271
LC-2-ad; first compound 8 µM
  relative viability: 0.27
NCI-H1395; first compound 0.08 µM
  relative viability: 0.842
NCI-H1395; first compound 0.253 µM
  relative viability: 0.764
NCI-H1395; first compound 0.8 µM
  relative viability: 0.936
NCI-H1395; first compound 2.53 µM
  relative viability: 0.765
NCI-H1395; first compound 8 µM
  relative viability: 1.09
NCI-H1793; first compound 0.08 µM
  relative viability: 0.728
NCI-H1793; first compound 0.253 µM
  relative viability: 1.04
NCI-H1793; first compound 0.8 µM
  relative viability: 0.798
NCI-H1793; first compound 2.53 µM
  relative viability: 0.679
NCI-H1793; first compound 8 µM
  relative viability: 1.2
NCI-H1944; first compound 0.08 µM
  relative viability: 0.642
NCI-H1944; first compound 0.253 µM
  relative viability: 0.518
NCI-H1944; first compound 0.8 µM
  relative viability: 0.636
NCI-H1944; first compound 2.53 µM
  relative viability: 0.516
NCI-H1944; first compound 8 µM
  relative viability: 0.698
NCI-H1993; first compound 0.08 µM
  relative viability: 0.588
NCI-H1993; first compound 0.253 µM
  relative viability: 0.702
NCI-H1993; first compound 0.8 µM
  relative viability: 0.567
NCI-H1993; first compound 2.53 µM
  relative viability: 0.497
NCI-H1993; first compound 8 µM
  relative viability: 0.613
NCI-H2023; first compound 0.08 µM
  relative viability: 0.222
NCI-H2023; first compound 0.253 µM
  relative viability: 0.3
NCI-H2023; first compound 0.8 µM
  relative viability: 0.198
NCI-H2023; first compound 2.53 µM
  relative viability: 0.213
NCI-H2023; first compound 8 µM
  relative viability: 0.221
NCI-H2126; first compound 0.08 µM
  relative viability: 0.682
NCI-H2126; first compound 0.253 µM
  relative viability: 0.785
NCI-H2126; first compound 0.8 µM
  relative viability: 0.71
NCI-H2126; first compound 2.53 µM
  relative viability: 0.695
NCI-H2126; first compound 8 µM
  relative viability: 0.645
NCI-H2228; first compound 0.08 µM
  relative viability: 0.351
NCI-H2228; first compound 0.253 µM
  relative viability: 0.359
NCI-H2228; first compound 0.8 µM
  relative viability: 0.336
NCI-H2228; first compound 2.53 µM
  relative viability: 0.355
NCI-H2228; first compound 8 µM
  relative viability: 0.473
NCI-H23; first compound 0.08 µM
  relative viability: 0.584
NCI-H23; first compound 0.253 µM
  relative viability: 0.902
NCI-H23; first compound 0.8 µM
  relative viability: 0.72
NCI-H23; first compound 2.53 µM
  relative viability: 0.518
NCI-H23; first compound 8 µM
  relative viability: 0.575
NCI-H2405; first compound 0.08 µM
  relative viability: 0.859
NCI-H2405; first compound 0.253 µM
  relative viability: 1.1
NCI-H2405; first compound 0.8 µM
  relative viability: 1.06
NCI-H2405; first compound 2.53 µM
  relative viability: 0.83
NCI-H2405; first compound 8 µM
  relative viability: 1.02
NCI-H358; first compound 0.08 µM
  relative viability: 0.161
NCI-H358; first compound 0.253 µM
  relative viability: 0.188
NCI-H358; first compound 0.8 µM
  relative viability: 0.183
NCI-H358; first compound 2.53 µM
  relative viability: 0.176
NCI-H358; first compound 8 µM
  relative viability: 0.175
NCI-H838; first compound 0.08 µM
  relative viability: 0.266
NCI-H838; first compound 0.253 µM
  relative viability: 0.245
NCI-H838; first compound 0.8 µM
  relative viability: 0.249
NCI-H838; first compound 2.53 µM
  relative viability: 0.226
NCI-H838; first compound 8 µM
  relative viability: 0.226
SK-LU-1; first compound 0.08 µM
  relative viability: 1.1
SK-LU-1; first compound 0.253 µM
  relative viability: 1.27
SK-LU-1; first compound 0.8 µM
  relative viability: 1.14
SK-LU-1; first compound 2.53 µM
  relative viability: 0.885
SK-LU-1; first compound 8 µM
  relative viability: 1.03
